Test systems include Pseudomonas aeruginosa 1; Pseudomonas aeruginosa 2; Staphylococcus aureus; Escherichia coli AB94012; Edwardsiella tarda; Escherichia coli; Miamiensis avidus; Streptococcus iniae; Trichophyton rubrum.
Test in all cases: ≥ marks a high value that may be exact or a test limit, other limits are often not marked, values filed in µg/mL are converted to µM
The test system of assay [1] is Candida albicans ATCC 90028.
Assay [2] relates to Candida parapsilosis ATCC 22019.
The test system of assay [3] is Enterococcus faecium ATCC 19434.
Assay [4] relates to Escherichia coli O157:H7 ATCC 43895.
The subject of assay [5] is Pseudomonas aeruginosa ATCC 27853.
For assay [6], the system named is Salmonella typhimurium ATCC 19430.
The test system of assay [7] is Staphylococcus aureus ATCC 25923.
The subject of assay [8] is Trichophyton rubrum KCTC 6345.
Assay [9] relates to Trichosporon beigelii KCTC 7707.
Assay [10] deals with Enterococcus faecalis ATCC 29212.
In assay [11] the test system is Escherichia coli ATCC 32218.
Assay [12] has as its system Staphylococcus aureus ATCC 29213.
For assay [13], the system named is Escherichia coli ATCC 25922.
Assay [14] concerns Pseudomonas aeruginosa AB93066.
Assay [15] deals with Pseudomonas aeruginosa ATCC 9027.
The test system of assay [16] is Staphylococcus aureus AB94004.
Assay [17] deals with Staphylococcus aureus ATCC 6538.
The subject of assay [18] is Staphylococcus aureus P1374.
Assay [19] relates to Staphylococcus aureus P1381.
Assay [20] relates to Candida albicans KCCM 11282.
Assay [21] has as its system Saccharomyces cerevisiae KCCM 11293.
In assay [22] the test system is Vibrio tapetis KCTC 12728.
For assay [23], the system named is Escherichia coli ATCC 8739.
Assay [24] relates to Trichophyton mentagrophytes.
Assay [25] deals with Bacillus subtilis CCT 2576.
Assay [26] relates to Pseudomonas aeruginosa ATCC 15422.

SMILES strings stand for the structures. ≈ marks a conversion by molar mass, not a printed value.

Regarding `CC[C@H](C)[C@H](NC(=O)[C@H](CCCN=C(N)N)NC(=O)CNC(=O)[C@@H](NC(=O)[C@@H]1CCCN1C(=O)[C@H](Cc1ccccc1)NC(=O)[C@H](CCC(N)=O)NC(=O)[C@H](CC(C)C)NC(=O)CNC(=O)[C@H](C)N)C(C)C)C(=O)NCC(=O)N[C@@H](CCCN=C(N)N)C(=O)N[C@@H](CC(C)C)C(=O)N[C@@H](CC(C)C)C(=O)N[C@@H](CCCN=C(N)N)C(=O)N[C@@H](CCCCN)C(=O)O` [AGLQFPVGRIGRLLRK], the minimal inhibitory concentration (MIC) in assay [1] is 6.3 µM (≈ 11.2 µg/mL); in [2], 12.5 µM (≈ 22.3 µg/mL); in assay [3] it was 12.5 µM (≈ 22.3 µg/mL); in assay [4], 6.3 µM (≈ 11.2 µg/mL); in the assay with Pseudomonas aeruginosa 1, 6.3 µM (≈ 11.2 µg/mL); in the assay on Pseudomonas aeruginosa 2, 12.5 µM (≈ 22.3 µg/mL). Further, the MIC in [5] was determined as 12.5 µM (≈ 22.3 µg/mL); in assay [6], 12.5 µM (≈ 22.3 µg/mL); in [7], 25 µM (≈ 44.5 µg/mL); with Staphylococcus aureus it was 12.5 µM (≈ 22.3 µg/mL); in [8] it was 6.3 µM (≈ 11.2 µg/mL); in assay [9], 6.3 µM (≈ 11.2 µg/mL).

As to `CC(C)C[C@H](NC(=O)[C@H](C)N)C(=O)N[C@@H](CCCCN)C(=O)N[C@@H](Cc1ccc(O)cc1)C(=O)N[C@@H](CCCN=C(N)N)C(=O)N[C@@H](CC(C)C)C(=O)N[C@@H](Cc1ccccc1)C(=O)N[C@@H](CCCCN)C(=O)N[C@@H](CCCCN)C(=O)N[C@@H](CC(C)C)C(=O)N[C@@H](CCCCN)C(=O)N[C@@H](CCCCN)C(=O)N[C@@H](Cc1ccccc1)C(=O)O` [ALKYRLFKKLKKF], the minimal inhibitory concentration (MIC) in assay [10] is 1.19 µM (≈ 2 µg/mL); in assay [11], no less than 35.6 µM; in assay [12] it was 0.594 µM (≈ 1 µg/mL).

As to `CC[C@H](C)[C@H](NC(=O)[C@H](CO)NC(=O)[C@H](CCCCN)NC(=O)[C@@H](NC(=O)CNC(=O)[C@H](CCCCN)NC(=O)[C@H](Cc1c[nH]c2ccccc12)NC(=O)[C@H](CC(C)C)NC(=O)[C@H](CCCCN)NC(=O)CNC(=O)[C@H](CC(C)C)NC(=O)[C@@H](NC(=O)[C@@H](N)Cc1ccccc1)[C@@H](C)CC)C(C)C)C(=O)N[C@@H](Cc1ccccc1)C(N)=O` [FILGKLWKGVKSIF], the MIC amounted to 15.3 µM (≈ 25 µg/mL) against Escherichia coli AB94012; 30.6 µM (≈ 50 µg/mL) in assay [13]; 30.6 µM (≈ 50 µg/mL) in assay [14]; 30.6 µM (≈ 50 µg/mL) in [15]; 3.82 µM (≈ 6.25 µg/mL) in [16]; 3.82 µM (≈ 6.25 µg/mL) in assay [7]. Moreover, the MIC worked out at 3.82 µM (≈ 6.25 µg/mL) in assay [17], 7.64 µM (≈ 12.5 µg/mL) in [18] and 7.64 µM (≈ 12.5 µg/mL) in assay [19].

As to `CC[C@H](C)[C@H](NC(=O)[C@H](C)NC(=O)[C@H](Cc1cnc[nH]1)NC(=O)CNC(=O)[C@@H](NC(=O)CNC(=O)[C@H](Cc1cnc[nH]1)NC(=O)[C@H](CC(C)C)NC(=O)[C@H](CC(C)C)NC(=O)[C@H](CCSC)NC(=O)CNC(=O)[C@H](CC(C)C)NC(=O)[C@@H](N)Cc1ccccc1)C(C)C)C(=O)N[C@@H](Cc1cnc[nH]1)C(=O)NCC(=O)N[C@@H](CC(C)C)C(=O)N[C@H](C(=O)N[C@@H](Cc1cnc[nH]1)C(=O)NCC(=O)N[C@@H](CCCCN)C(=O)N[C@@H](CCC(N)=O)C(=O)N[C@@H](CC(N)=O)C(=O)N[C@H](C(=O)N[C@@H](CCC(=O)O)C(=O)O)C(C)C)[C@@H](C)CC` [FLGMLLHGVGHAIHGLIHGKQNVE], the MIC in [20] is 22.5 µM (≈ 58 µg/mL); against Edwardsiella tarda, no less than 90 µM; with Escherichia coli, 45 µM (≈ 116 µg/mL); against Miamiensis avidus, 0.4 µM (≈ 1.03 µg/mL); in [21] it was 11.2 µM (≈ 29 µg/mL); with Streptococcus iniae, no less than 45 µM. For the same compound, the MIC in [22] was 22.5 µM (≈ 58 µg/mL).

For `CSCC[C@H](NC(=O)[C@H](CO)NC(=O)[C@H](C)NC(=O)[C@H](C)NC(=O)[C@H](C)NC(=O)[C@H](C)NC(=O)[C@H](C)NC(=O)[C@H](C)NC(=O)[C@H](C)NC(=O)[C@H](CC(N)=O)NC(=O)[C@H](C)NC(=O)[C@H](C)NC(=O)[C@@H](NC(=O)[C@H](CC(C)C)NC(=O)[C@H](C)NC(=O)[C@H](C)NC(=O)[C@H](C)NC(=O)[C@H](C)NC(=O)[C@H](C)NC(=O)[C@H](C)NC(=O)[C@H](CC(=O)O)NC(=O)[C@H](CO)NC(=O)[C@H](C)NC(=O)[C@@H](NC(=O)[C@@H](N)Cc1cnc[nH]1)[C@@H](C)O)[C@@H](C)O)C(=O)N[C@@H](C)C(=O)O` [HTASDAAAAAALTAANAAAAAAASMA], the MIC in assay [2] is no less than 115 µM; in [23] it was 30 µM (≈ 66.4 µg/mL); in assay [7] it was greater than 115 µM; in assay [24], no less than 115 µM; against Trichophyton rubrum it was no less than 115 µM.

`CC[C@H](C)[C@H](N)C(=O)N[C@@H](CC(N)=O)C(=O)N[C@@H](Cc1c[nH]c2ccccc12)C(=O)N[C@@H](CCCCN)C(=O)N[C@@H](CCCCN)C(=O)N[C@@H](CCSC)C(=O)N[C@@H](C)C(=O)N[C@@H](C)C(=O)N[C@H](C(=O)N[C@@H](C)C(=O)N[C@@H](CC(C)C)C(=O)N[C@@H](CCCCN)C(=O)N[C@@H](CCSC)C(=O)N[C@H](C(N)=O)[C@@H](C)CC)[C@@H](C)O` [INWKKMAATALKMI]: the MIC in assay [25] was 2.16 µM (≈ 3.5 µg/mL); in [13], 2.41 µM (≈ 3.9 µg/mL); in assay [26], 9.64 µM (≈ 15.6 µg/mL); in [17], 1.79 µM (≈ 2.9 µg/mL).

As a reminder, the MIC is the smallest concentration in the dilution series that meets the test's criterion for growth inhibition. High values mean weaker potency, low ones greater potency.
